Our source for the EC50 values is publication PMC6302903, “Protein and Chemical Determinants of BL-1249 Action and Selectivity for K2P Channels” (ACS Chemical Neuroscience, 2018).

This experiment addresses T1, K2P2.1(TREK-1) F185L (Mus musculus, UniProt P97438, F200L).
T1 construct: expressed in transfected cells; host or cells: Xenopus laevis oocytes, mRNA injected
Description: TEVC of K2P2.1(TREK-1) mutant F185L. The experiment is classed as cell-based. To be noted: Xenopus oocytes. From the text: To identify K2P2.1(TREK-1) M2 residues that might participate in the BL-1249 response, we mapped the residues that differ between K2P2.1(TREK-1) and K2P4.1(TRAAK) in the context of the K2P2.1(TREK-1) structure[6] (Figure 5B,C). Two K2P2.1(TREK-1) M2 residues stood out as candidates that could explain the reduction in BL-1249 response when the entire M2 helix was replaced with M2 from K2P4.1(TRAAK). One is at the M2/M4 interface and occurs between Phe172 and Arg297 via a π–cation interaction that would be lost when Phe172 is replaced with the equivalent K2P4.1(TRAAK) residue Met134 (Figure 5C, right inset). […] To assess the importance of these interactions in the context of BL-1249 response, we made the K2P2.1(TREK-1) mutants F172M and F185L and measured their responses to BL-1249 (Figure 5D). […]
Xenopus laevis oocytes were harvested in accordance with UCSF IACUC protocol AN129690 and digested in calcium-free ND-96 (96 mM NaCl, 2 mM KCl, 3.8 mM MgCl2) immediately following harvest, as previously described.[6],[10] […] Defolliculated stage V–VI oocytes were injected with 0.2–6.0 ng of mRNA in 50 nL, and currents were recorded 24–48 h after injection. mRNA was synthesized from plasmid DNA using mMessage mMachine Kit (T7 promoter, Ambion, Life Technologies) and purified using RNEasy Kit (Qiagen). […]

T1 sequence (P97438 1-411 isoform P97438-2 F185L): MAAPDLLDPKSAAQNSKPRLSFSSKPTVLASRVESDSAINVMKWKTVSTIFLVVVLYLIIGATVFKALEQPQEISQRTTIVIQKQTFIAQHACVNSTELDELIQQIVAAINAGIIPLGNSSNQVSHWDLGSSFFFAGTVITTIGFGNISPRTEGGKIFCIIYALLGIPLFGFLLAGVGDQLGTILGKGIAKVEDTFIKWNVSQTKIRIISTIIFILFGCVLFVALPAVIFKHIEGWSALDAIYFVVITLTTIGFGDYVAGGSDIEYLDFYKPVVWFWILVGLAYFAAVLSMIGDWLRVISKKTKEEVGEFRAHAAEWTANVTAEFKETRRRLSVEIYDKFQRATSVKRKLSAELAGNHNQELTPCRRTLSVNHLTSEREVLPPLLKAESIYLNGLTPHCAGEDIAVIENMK

By EC50 is commonly meant the concentration needed to bring the measured effect to its halfway point. Higher therefore signals lower potency in that assay. For `c1ccc(-c2nnn[nH]2)c(Nc2cccc3c2CCCC3)c1` [BL-1249, (5,6,7,8-tetrahydro-naphthalen-1-yl)-[2-(1H-tetrazol-5-yl)-phenyl]-amine], the midpoint of the response, the EC50, lay at 27 ± 5 µM.
